{
  "source": "patent US20100197584A1",
  "about": "“USE OF CURCUMIN TO BLOCK BRAIN TUMOR FORMATION IN MICE” (Research Foundations of the City University of- New York, priority 2007, published 2010)",
  "key": {"[1]": {"test_system": "A549 (human lung cancer) cells", "assay": "Caspase-3/7 assay in A549 cells", "type": "cell-based", "details": "20 μM and 50 μM, 48 h (FIG. 5)", "description": "Cells. B16F10 (mouse melanoma), GL261 (mouse glioma), HOG (human oligodendroglioma), A549 (human lung cancer), and […] (mouse neuroblastoma) cells were cultured separately in DMEM containing 10% (v/v) fetal bovine serum and 1% (v/v) penicillin-streptomycin (PS) and allowed to grow to 40% confluence in a 96-well plate. Curcumin Treatment. Two hours before drug treatment, the medium in each well was replaced with 200 μl Neurobasal medium supplemented with 2% (v/v) B27 and 1% (v/v) PS (Drug-treatment Medium). A stock solution (40 mM) of curcumin was prepared in sterile dimethyl sulfoxide (DMSO) (Example 1). Through serial dilution of each stock solution in Drug-treatment Medium, the following concentrations were obtained: 20 μM and 50 μM (for caspase 3/7 assays) or 25 μM and 50 μM (for MTT assays). Drug-treatment Medium in each well was aspirated, and a drug solution of each concentration or carrier-containing medium (control) was added to triplicate wells of cells (50 μl/well). […] Additionally, the background absorbance was determined from parallel wells containing only the Drug-treatment Medium plus a particular concentration of the drug (no cells). […] Fluorescence in each well was measured using the FLx 800 plate reader (Bio-Tek Instruments, Winooski, Vt.) set at 485/20 nm excitation and 528/20 nm emission wavelengths and the sensitivity of 70. […]"}, "cyclin D1": {"test_system": "cyclin D1", "assay": "Western blot of B16F10 cells, cyclin D1", "type": "cell-based, mouse", "details": "50 μM", "description": "B16F10 cells were cultured in 10-cm plates and then treated in duplicate with carrier or curcumin (50 μM). Following treatment for appropriate time periods, the cells were washed with PBS, lysed in RIPA buffer (PBS containing 1% Nonidet P40, 0.5% sodium deoxycholate, 0.1% SDS, 0.5 mM Na3VO4 plus freshly added PMSF and protease inhibitor cocktail; Boeringer-Roche), and then 20 μg of lysate protein (per lane) were analyzed by SDS-10% PAGE and Western blot analysis. Antibody concentrations used were: anti-phospho-NF-κB (1:1000) (Santa Cruz Biotechnology, Santa Cruz, Calif.), anti-phospho-Akt (1:5000) (Cell Signaling, CA), anti-cyclin D1 (1:1000) (Cell Signaling, CA), anti-BclXL (1:500) (Santa Cruz Biotechnology), anti-VEGF (1:500) (Santa Cruz Biotechnology), and anti-β-actin (1:1000) (Sigma, St. Louis, Mo.)."}},
  "data": [
    {"smiles": "COc1cc(/C=C/C(=O)CC(=O)/C=C/c2ccc(O)c(OC)c2)ccc1O", "note": "[curcumin]", "values": [
      {"measurement": "caspase-3/7 activity", "setting": "[1]", "result": "increased"},
      {"measurement": "cyclin D1 levels (Western blot)", "setting": "cyclin D1; active cell division (first 48 h)", "result": "decrease"},
      {"measurement": "cyclin D1 inhibition (Western blot)", "setting": "cyclin D1; subsequently, when cell division had slowed down", "result": "not observed"}
    ]}
  ]
}
